The target of one experiment is T1, CB2 receptor (Homo sapiens, UniProt P34972).
T1 construct: expressed in transfected cells
As to the kind of experiment: CB2 binding procedure, displacement of [3H]CP-55,940 from membranes of transfected CHO cells. As to conditions: for CB1/CB2: ratio of CB1 Ki to CB2 Ki; for Ki: Table 6, read-out: CB2 KI. As to the method:
Membranes for CB2 binding were obtained from CHO cells. The transfected cell line was maintained in Dublecco's Modified Eagle Medium (Gibco BRL, Grand Island, N.Y.) with 10% fetal clone II (HyClone Laboratories, Inc., Logan, Utah) plus 0.3 to 0.5 mg/ml G418 (to maintain selective pressure) under 5% CO2 at 37% C. Cells were harvested with 1 mM EDTA in phosphate-buffered saline and were centrifuged at 1000×g for 5 min at 4% C. The supernatant was saved and the P1 pellet was resuspended in centrifugation buffer. Homogenization and centrifugation were repeated twice and the combined supernatant fractions were centrifuged at 40,000×g for 30 min at 4% C. The P2 pellet was resuspended in centrifugation buffer 2 (Tris HCl, 50 mM; EDTA, 1 mM; and MgCl2, 3 mM, pH 7.4) to a protein concentration of approximately 2 mg/ml. Protein concentrations were determined by the method of Bradford (1976) using Bio-Rad Protein Assay (Bio-Rad, Richmond, Calif.) and BSA standards (fatty acid free, Sigma Chemical Co., St. Louis, Mo.). The membrane preparation was divided into amounts convenient for binding assays and frozen rapidly in dry ice and stored at −80% C.
Binding was initiated by the addition of 50•g of quickly thawed P2 membranes to test tubes containing [^3H]CP-55,940 (final reaction concentration 0.5 nM), an appropriate concentration of unlabeled CP-55,940 or test drug, and sufficient quantity of assay buffer (50 mM Tris-HCl, 1 mM EDTA, 3 mM MgCl2, 5 mg/ml bovine serum albumin, pH 7.4) to bring the total incubation volume to 0.5 ml. Concentration of [^3H]CP-55,940 in saturation studies ranged from 50 to 10,000 pM. […] CP-55,940 and all cannabinoid analogs were-prepared by suspension in assay buffer from a 1 mg/ml ethanolic stock without evaporation of the ethanol (final concentration of no more than 0.4%). In competition studies, analog concentrations ranged from 0.1 nM to 10•M. After incubation at […] for 1 hr, binding was terminated by the addition of 2 ml of ice-cold wash buffer (50 mM Tris-HCl and 1 mg/ml BSA) and vacuum filtration through pre-treated filters in a 12-well sampling manifold (Millipore, Bedford, Mass.). Reaction vessels were washed once with 2 ml of ice-cold wash buffer. Filters were placed into 7-ml plastic scintillation vials (RPI Corp., Mount Prospect, Ill.) with 4 ml of Budget-Solve (RPI Corp.). After shaking for 30 min, the radioactivity present was determined by liquid scintillation spectrometry. Three reaction vessels were used for each drug concentration in each assay. The results represent the combined data of three independent experiments. All assays were performed in siliconized test tubes, which were prepared by air drying (12 hr) inverted borosilicate tubes after two rinses with a 0.1% solution of AquaSil (Pierce, Rockford, Ill.). The GF/C glass-fiber filters (2.4 cm, Baxter, McGaw Park, Ill.) were pre-treated in a 0.1% solution of pH 7.4 polyethylenimine (Sigma Chemical Co.) for at least 6 hr.
(§1) In addition, multiple linear regression was used to calculate the overall degree of relationship between CB1 binding affinity and potency in the mouse measures for all active cannabinoids. […] Ki values for CB1 and CB2 binding were obtained from Scatchard displacement analysis as determined via EBDA program of the KELL software package (Biosoft, Milltown, N.J.).
On the technique in general: In a radioligand displacement assay an active substance lowers the binding of a labelled ligand.

Another experiment concerns the target T2, CB1 receptor (Rattus norvegicus, UniProt P20272).
T2 construct: whole brain was homogenized and centrifuged; from tissue; host or cells: whole brain of male Sprague-Dawley rats, P2 membrane fraction
In words: CB1 binding procedure, displacement of [3H]CP 55,940 from rat whole-brain P2 membranes. The settings on record: for Ki: Table 6, read-out: CB1 KI. The procedure: Male ICR mice (25-32 g), obtained from Harlan (Dublin, Va.), were housed in groups of five. All animals were kept in a temperature-controlled (20-22° C.) environment with a 12-hour light-dark cycle (lights on at 7 a.m.). Separate mice were used for testing each drug dose in the in vivo behavioral procedures. Brain tissue for binding studies was obtained from male Sprague-Dawley rats (150-200 g) purchased from Harlan Laboratories (Dublin, Va.).
The methods used for tissue preparation and binding have been described previously (Compton et al., 1993) and are similar to those described by Devane et al. (1988). All assays, as described briefly below, were performed in triplicate, and the results represent the combined data from three to six individual experiments.
Following decapitation and rapid removal of the brain, whole brain was homogenized and centrifuged. The resulting pellet was termed P1. The supernatant was saved and combined with the two subsequent supernatants obtained from washing of the P1 pellet. The combined supernatant fractions were centrifuged, resulting in the P2 pellet. After further incubation and centrifuging, this pellet was resuspended in assay buffer to a protein concentration of approximately 2 mg/ml. The membrane preparation was quickly frozen in a bath solution of dry ice and 2-methylbutane (Sigma Chemical Co., St. Louis, Mo.), then stored at −80° C. for no more than 2 weeks. Prior to performing a binding assay an aliquot of frozen membrane was rapidly thawed and protein values determined by the method of Bradford (1976).
Binding was initiated by the addition of 150•g of P2 membrane to test tubes containing 1 nM of [^3H] CP 55,940 (79 Ci/mmol) and a sufficient quantity of buffer to bring the total incubation volume to 1 ml. […] Following incubation at 30° C. for 1 hr, binding was terminated by addition of ice cold buffer and vacuum filtration through pretreated filters in a 12-well sampling manifold (Millipore, Bedford, Mass.). After washing, filters were placed into plastic scintillation vials (Packard, Downer Grove, Ill.) and shaken. The quantity of radioactivity present was determined by liquid scintillation spectrometry.
as §1

Where only a bound is given, the exact number is not on record here.

Results on 28 molecules are retold here after patent publication US7285687B2 (priority 2002, dated 2007).

T1 sequence (P34972 whole entry): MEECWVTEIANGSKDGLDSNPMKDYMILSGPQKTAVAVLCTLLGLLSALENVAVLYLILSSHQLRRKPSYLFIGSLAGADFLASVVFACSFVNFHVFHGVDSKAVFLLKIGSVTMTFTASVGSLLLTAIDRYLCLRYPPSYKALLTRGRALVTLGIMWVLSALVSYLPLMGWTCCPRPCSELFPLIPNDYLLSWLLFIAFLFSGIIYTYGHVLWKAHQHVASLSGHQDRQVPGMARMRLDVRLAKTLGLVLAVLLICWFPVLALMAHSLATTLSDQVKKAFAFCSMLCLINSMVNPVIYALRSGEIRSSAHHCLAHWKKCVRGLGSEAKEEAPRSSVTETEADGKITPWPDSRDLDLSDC
T2 sequence (P20272 whole entry): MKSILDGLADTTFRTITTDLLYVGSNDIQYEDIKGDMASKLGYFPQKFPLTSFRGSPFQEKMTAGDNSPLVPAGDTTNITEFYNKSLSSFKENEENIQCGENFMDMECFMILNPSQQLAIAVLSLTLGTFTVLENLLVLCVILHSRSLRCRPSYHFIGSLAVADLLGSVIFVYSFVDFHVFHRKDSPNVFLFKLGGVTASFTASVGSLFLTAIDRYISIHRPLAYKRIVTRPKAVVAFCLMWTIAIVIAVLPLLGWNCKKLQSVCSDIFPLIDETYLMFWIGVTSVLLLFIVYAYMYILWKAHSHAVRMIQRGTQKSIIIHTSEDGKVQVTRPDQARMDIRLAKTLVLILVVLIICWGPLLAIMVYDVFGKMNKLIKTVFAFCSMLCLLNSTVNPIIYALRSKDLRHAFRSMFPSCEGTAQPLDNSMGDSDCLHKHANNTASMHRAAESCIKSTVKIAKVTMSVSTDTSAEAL

For the molecule `CCCCCCC(C)(C)c1cc(O)c(C2CCCC(C)C2)c(O)c1` (mixture of isomers) [O-1657, 2-(3-Methylcyclohexyl)-5-(1′,1′-dimethylheptyl)-resorcinol], at CB2 receptor, the CB1/CB2 came out at 17.
Take `CCCCCCC(C)(C)c1cc(O)c(C2CCCC(C)C2)c(O)c1` (single isomer, unassigned) [O-1798B, 2-(3-Methylcyclohexyl)-5-(1′,1′-dimethylheptyl)-resorcinolisomer B]: the CB1/CB2 on CB2 receptor is 8. Also, the Ki at CB1 receptor came to 4.33 ± 0.58 nM.
Take `CCCCCCC(C)(C)c1cc(OC)c(C2(O)CCC(O)CC2)c(OC)c1` (single isomer, unassigned) [O-2116A, 1-[4-(1,1-Dimethyl-heptyl)-2,6-dimethoxy-phenyl]-cyclohexane-1,4-olol (A)]: at CB2 receptor, the CB1/CB2 stood at 21.
As to `C=C(C)[C@@H]1CCC(C)=CC1c1c(O)cccc1O` (single isomer, unassigned; (-)) [O-1847, (-)-2-(3-3,4-trans-p-menthadien-(1,8)-yl)-resorcinol], the Ki on CB1 receptor is greater than 10000 nM.
Turning to `C=C(C)[C@@H]1CCC(C)=CC1c1ccc(O)cc1O` (single isomer, unassigned; (-)) [O-1848, (-)-4-(3-3,4-trans-p-menthadien-(1,8)-yl)-resorcinol], the Ki on CB1 receptor is greater than 10000 nM.
On the same count and under the same terms, with `C=C(C)[C@@H]1CCC(C)=CC1c1c(O)c(I)c(C)c(I)c1O` (single isomer, unassigned; (-)) [O-1868, (-)-2-(3-3,4-trans-p-menthadien-(1,8)-yl)-1,6-dipdoorcinol] the figure was greater than 10000 nM.
For the molecule `CCCCCCC(C)(C)c1cc(O)c(C2CCCC(C)C2)c(O)c1` (single isomer, unassigned; isomer a) [O-1797A, 2-(3-Methylcyclohexyl)-5-(1′,1′-dimethylheptyl-resorcinol isomer A], at CB2 receptor, the inhibition constant Ki is 0.44 ± 0.03 nM and the CB1/CB2 is listed as 12.
Regarding `CCCCCCC(C)(C)c1cc(O)c([C@H]2CCCC(C)C2)c(O)c1` (stereo in doubt) [O-1826, 2-(3R-Methylcyclohexyl)-5-(1′,1′-dimethylheptyl)-resorcinol], at CB2 receptor, the CB1/CB2 was found to be 50.
`CCCCCCC(C)(C)c1cc(OC)c(C2(O)CCC[C@@H](C)C2)c(OC)c1` (stereo in doubt) [compound 2137, 1-[4-(1,1-Dimethyl-heptyl)-2,6-dimethoxy-phenyl]-3-methyl-cyclohexanol]: the values for the Ki at CB2 receptor and on CB1 receptor were 11 ± 2.18 nM and 2670 ± 145 nM, respectively.
Consider `CCCCCCC(C)(C)c1cc(O)c(C2CCCCC2)c(O)c1` [O-1422, Cyclohexyl-5-(1′,1′-dimethylheptyl)-resorcinol], for which the CB1/CB2 at CB2 receptor came to 7.
For the molecule `CCCCCCC(C)(C)c1cc(O)c(C2=CCCCC2)c(O)c1` [O-1423], on CB2 receptor, the CB1/CB2 came to 3.
With `CCCCCCC(C)(C)c1cc(O)c(C2CCSCC2)c(O)c1` [O-1425], the “fold decrease in CB2 affinity” value at CB2 receptor (compared to O-1422) turned out to be 8 fold. Also, on CB2 receptor, the CB1/CB2 is on record as 13. Also, the “fold decrease in CB1 affinity” value at CB1 receptor (compared to O-1422) turned out to be 14 fold.
As to `CCCC(C)(C)c1ccc(-c2cc(C)ccc2C(C)C)c(O)c1` [O-1532, 3-1′,1′-Dimethylbutyl-6-(2-isopropyl-5-methyl-phenyl)-phenol], the CB1/CB2 on CB2 receptor was found to be 8.
Turning to `CCCCCCC(C)(C)c1ccc(-c2cc(CO)ccc2C(C)C)c(O)c1` [O-1601, 3-1′,1′-Dimethylhepyl-6-(2-isopropyl-5-hydroxy-methylphenyl)-phenol], at CB2 receptor, the CB1/CB2 is 2.
With `CCCCCCC(C)(C)c1cc(O)c(C2CCCCC2C)c(O)c1` (centres unmarked) [O-1658, 2-(2-Methylcyclohexyl)-5-(1′,1′-dimethylheptyl)-resorcinol], the CB1/CB2 at CB2 receptor turned out to be 16.
Regarding `CCCCCCC(C)(C)c1cc(O)c(C2CCC(C)CC2)c(O)c1` (centres unmarked) [O-1659, 2-(4-Methylcyclohexyl)-5-(1′,1′-dimethylheptyl)-resorcinol], on CB2 receptor, the CB1/CB2 stood at 9.
Consider `CCCCCCC(C)(C)c1cc(O)c(C2C3CC4CC(C3)CC2C4)c(O)c1` (centres unmarked) [O-1660, 2-(2-Adamantanyl)-5-(1′,1′-di-methylheptyl)-resorcinol], for which, on CB2 receptor, the Ki is 3.16 ± 0.81 nM and the CB1/CB2 was determined as 2. In addition, the Ki at CB1 receptor was determined as 7.5 ± 1.2 nM.
Consider `CCCCCCC(C)(C)c1cc(O)c(C2CCC(c3ccccc3)CC2)c(O)c1` (centres unmarked) [O-1663, 2-(4-Phenylcyclohexyl)-5-(1′,1′-dimethylheptyl)-resorcinol], for which the CB1/CB2 on CB2 receptor was 16.
The same measure, in the same setting: to `CCCC(C)(C)c1cc(O)c(C2CCCC(C)C2)c(O)c1` (centres unmarked) [O-1890, 2-(3-Methylcyclohexyl)-5-(1′,1′-dimethylbutyl)-resorcinol] belongs 7.
For `CCCCCCC(C)(C)c1cc(OC)c(C2CCCC(C)C2)c(OC)c1` (centres unmarked) [O-1999, 5-(1,1-Dimethyl-heptyl)-1,3-dimethoxy-2-(3-methyl-cyclohexyl)-benzeno], the “fold reduction in affinity for CB2 receptors” value at CB2 receptor (compared to O-1657) is given as roughly 600 fold.
Consider `CCCCCCC(C)(C)c1cc(OC)c(C2(O)CCCC(C)(C)C2)c(OC)c1` (centres unmarked) [O-2068, 1-[4-(1,1-Dimethylheptyl)-2,6-dimethoxyphenyl]3,3-dimethyl-cyclohexanol], for which the CB1/CB2 at CB2 receptor is recorded as 47.
Same read-out and setting: to `CCCCCCC(C)(C)c1cc(OC)c(C2(O)CCCCC2)c(OC)c1` [O-2072, 1-[4-(1,1-Dimethylheptyl)-2,6-dimethoxyphenyl]-cyclohexanol] belongs 55; to `CCCCCCC(C)(C)c1cc(OCC)c(C2(O)CCCC(C)C2)c(OCC)c1` (centres unmarked) [O-2090, 1-[4-(1,1-Dimethylheptyl)-2,6-dietlphenyl]-3-methyl cyclohexane-1-ol], 10; to `CCCCCCC(C)(C)c1cc(OC)c(C2(O)CCCCCC2)c(OC)c1` [O-2091, 1-[4-(1,1-Dimethylheptyl)-2,6-dimephenyl]-cycloheptan-1-ol], 50.
For `CCCCCCC(C)(C)c1cc(OC)c(C2(O)CCC3(CC2)OCCO3)c(OC)c1` [O-2092, 8-[4-(1,1-Dimethylheptyl)-2,6-dimephenyl]-1,4-dioxaspiro[4,5]decan-], on CB2 receptor, the CB1/CB2 is on record as 36.
The same measure, in the same setting: to `CCCCCCC(C)(C)c1cc(OC)c(C2=CCC(=O)CC2)c(OC)c1` [O-2114, 4-[4-(1,1-Dimethyl-heptyl)-2,6-dimethoxy-phenyl]-cyclohex-3-enone] belongs 5.
With `CCCCCCC(C)(C)c1cc(OC)c(C2(O)CC(C)CC(O)C2)c(OC)c1` (centres unmarked) [O-2121], the CB1/CB2 at CB2 receptor came out at 20.
In the case of `CCCCCCC(C)(C)c1cc(OC)c(C23CCC(O)CC2O3)c(OC)c1` (centres unmarked) [O-2122, 6-[4-(1,1-Dimethyl-heptyl)-2,6-dimethoxy-phenyl]-7-oxa-bicyclo[4 1 0]heptan-3-ol], the CB1/CB2 on CB2 receptor was found to be 4.

One may read the Ki as the equilibrium dissociation constant of an inhibitor or competing ligand from its target.
